Our source for the fold induction values is US6465636B1, “Pathogen-inducible promoter” (Zeneca Mogen B.V., priority 1998, dated 2002).

Where two headings read alike, the source gives them in different places.

The test system of this assay is ms59 messenger. The experiment in a line: Induction of ms59 messengers in sunflower leaves, transcript levels by competitive RT-PCR. The class given is in vivo, Helianthus annuus cv Zebulon. Conditions: Helianthus annuus, read-out: fold induction of the ms59 messenger relative to the control. On the procedure:
Leaves of 7 to 8 weeks old Sunflower plants (Helianthus annuus cv Zebulon) were induced by spraying 5 times with 5 mM salicylic acid (SA), spraying once with 1 mM salicylic acid, once with 0.1 mm jasmonic acid (JA), once with 1 mM ACC (1-aminocyclopropane-1-carboxylic acid, a precursor of the plant hormone ethylene) or wounding. Leaf samples were harvested from induced leaves after 24 hours (1 mM SA, 0.1 mM JA, 1 mM ACC and wounding) and after 5 days (5 mM SA). Control samples were taken at 24 hours after induction in non-induced plants.
Total RNA was extracted from 10 g leaf material using a hot phenol method and purified using the Qiagen RNA buffer set and tip-100 columns (Qiagen GmbH, Germany). Contaminating DNA was degraded using a Dnase I (Gibco BRL) treatment.
cDNA was prepared using 1 μg total RNA, 1 μl oligo(dT)12-18 primers (500 μg/ml, Gibco BRL) and 200 units of Superscript II RT RNAse H reverse transcriptase (Gibco BRL) as described by the manufacturer.
Transcript levels of ms59 were determined using the competitive RT-PCR technology.
PCR MIMIC dilutions were made in a range of […] to 0.01 ag/μl in H2O containing 0.2 μg/μl glycogen as a carrier.
The cDNA samples were analysed in a competitive RT-PCR. Therefore 2 µl of the samples was combined in a 0.5 ml tube with 1 μl diluted PCR MIMIC (amounts; 0.1 pg, 10 fg, 1.0 fg, 0.1 fg, 10 ag and 1.0 ag). Amplification of cDNA and MIMIC was performed using 10 μM of the primers FR-MS59-47 and FR-MS59-77, 0.5 μl 20 mM dNTP's, 1×PCR buffer, MgCl and 2.5 units recombinant Taq DNA polymerase (Gibco BRL) and was allowed to proceed for 35 cycles, 1′ 95° C., 1′ 55° C., 2′ 72° C. PCR products were separated on a 2% agarose gel and visualized by staining with ethidium bromide and a UV illuminator.

Take `O=C(O)c1ccccc1O` [salicylic acid]: the fold induction at 5000 µM (120 h, 5 mM, leaves sprayed 5 times, harvested after 5 days) is 1000. The fold induction at 1000 µM (1 mM, leaves sprayed once, harvested after 24 hours) stood at 1.
Regarding `NC1(C(=O)O)CC1` [ACC, 1-aminocyclopropane-1-carboxylic acid], for the setting “24 h”, the fold induction at 1000 µM is 10.
Take `CC/C=C\C[C@H]1C(=O)CC[C@@H]1CC(=O)O` [jasmonic acid]: the fold induction at 100 µM (24 h) is 10.
